Source: patent publication US20210301318A1, “A BIOMARKER AND TARGET FOR DIAGNOSIS, PROGNOSIS AND TREATMENT OF ANKYLOSING SPONDYLITIS” (priority 2018, published 2021)
Entries after “also recorded” stand apart in the source; their conditions may differ.

Experiments:
AS MSCs = assay: Mineralization of AS MSCs under osteogenic induction (Alizarin red S staining); format: cell-based, human; details: 100 μM levamisole, 100 μM beryllium sulfate, or 1 μg/ml pamidronate
Method: The same passages (p3 to p5) of AS MSCs and N MSCs were compared.
The first culture condition was osteogenic induction, whereby α-MEM was supplemented with 10% fetal bovine serum (Gibco), 50 μg/mL ascorbate-2 phosphate (Sigma-Aldrich, St. Louis, Mo., USA), 10 nmol/L dexamethasone (Sigma-Aldrich), and 10 mmol/L β-glycerophosphate (Sigma-Aldrich). […] The medium was changed every 3 days. After appearance of the morphologic features of differentiation, cells were fixed with 4% paraformaldehyde. Cells treated by osteogenic culture were stained for Alizarin red S (Sigma-Aldrich) for mineralization. Quantification of Alizarin red S staining was conducted by measurement of the optical density (OD) of extracted dye at 550 nm with a plate reader (Molecular Devices, Sunnyvale, Calif., USA).
After morphological differentiation, cells were subjected to Alizarin red S staining.

TNAP = target: T1, TNAP (Homo sapiens, UniProt P05186); details: from references 22-24; cited from earlier work
T1 sequence (P05186 18-501 limits assumed): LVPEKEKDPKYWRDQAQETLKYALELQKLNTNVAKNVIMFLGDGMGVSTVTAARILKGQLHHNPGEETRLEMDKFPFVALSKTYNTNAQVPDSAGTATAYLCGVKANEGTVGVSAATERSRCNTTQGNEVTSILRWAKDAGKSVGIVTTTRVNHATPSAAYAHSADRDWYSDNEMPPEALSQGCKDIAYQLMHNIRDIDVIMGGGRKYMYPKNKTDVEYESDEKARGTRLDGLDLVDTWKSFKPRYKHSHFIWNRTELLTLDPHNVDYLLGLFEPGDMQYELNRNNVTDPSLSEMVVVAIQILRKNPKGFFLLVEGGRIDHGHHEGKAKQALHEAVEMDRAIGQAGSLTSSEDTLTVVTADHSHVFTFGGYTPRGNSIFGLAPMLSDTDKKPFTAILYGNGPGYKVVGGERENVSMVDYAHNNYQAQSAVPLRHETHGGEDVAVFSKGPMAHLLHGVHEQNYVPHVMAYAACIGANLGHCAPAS

[1] = test system: NOD-SCID mice implanted with AS MSCs; assay: New bony apposition in NOD-SCID mice implanted with AS MSCs (micro-computed tomography of lumbar spine); format: in vivo; details: daily oral administration: levamisole 10 mg/kg, beryllium sulfate 7.5 mg/kg, pamidronate 0.3 mg/kg; micro-CT 3 weeks after implantation
Method: The animal experimental protocol was approved by the Animal Care and Utilization Committee of Taipei Tzu Chi General Hospital. NOD-SCID mice (8-10 weeks) were purchased from BioLASCO (Taipei, Taiwan) and maintained in a specific pathogen-free environment. Human MSCs were treated with β-glycerophosphate in culture for 5 days, embedded in fibrin (10^6 cells in 5 μl fibrin) (Baxter, Vienna, Austria) and implanted in areas adjacent to right lamina of lumbar spine segments L4 to L5 in NOD-SCID mice. The lamina of lumbar spine was decorticated using the forceps. Mice were fed with a 0.9% phosphate diet (Dyets, Bethlehem, Pa., USA) after surgery. Micro-computed tomography (SkyScan 1076; Kontich, Belgium) over lumbar spines was undertaken 3 weeks after implantation. Bone mineral density over the femur measured by micro-computed tomography in NOD-SCID mice following implantation with AS MSCs and daily oral administration of H2O levamisole (10 mg/kg), beryllium sulfate tetrahydrate (7.5 mg/kg), or pamidronate (0.3 mg/kg) for 12 weeks. Quantitative volumes of new bony apposition were acquired by Bruker CT-Volume version 2.0 software.

AS patients = details: cited from earlier work

| Compound | accelerated mineralization in AS MSCs (ARS staining) (AS MSCs) | type of TNAP inhibition (TNAP) | new bony apposition induced by AS MSCs [1] | serum BAP levels (AS patients; one study, reference 34) | inflammation of AS patients (AS patients; some studies, references 26-29) |
| --- | --- | --- | --- | --- | --- |
| O.O.O.O.O=S(=O)([O-])[O-].[Be+2] [beryllium sulfate, BeSO4•4H2O] | blocked effectively | competitive | – | – | – |
| NCCC(O)(P(=O)(O)O)P(=O)(O)O [pamidronate] | blocked effectively; also recorded: inhibit this abnormal mineralization | uncompetitive | blocked | lowering serum BAP levels | – |
| c1ccc([C@H]2CN3CCSC3=N2)cc1 [levamisole, (6S)-6-phenyl-2H,3H,5H,6H-imidazo[2,1-b][1,3]thiazole] | blocked effectively; also recorded: inhibit this abnormal mineralization | uncompetitive | blocked | – | marginally reduce inflammation |
